Data: patent US11622970B2, “BCL-2 inhibitors and their use as pharmaceuticals” (PRELUDE THERAPEUTICS INCORPORATED, priority 2020, dated 2023)

Biological target: BCL-2 recombinant protein (Homo sapiens, UniProt P10415)
Experiment: Cell free Bcl-2:Bak affinity assay (Bcl-2 Bak), HTRF competition of FAM-Bak peptide
Assay type: binding
Details: 10-concentration IC50 mode, 4 nM BCL-2 recombinant protein, 100 nM FAM-Bak, read-out: potency (IC50)
How it was run: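 Compounds in 10-point 3-fold dilution preincubated 10 min at RT with 4 nM GST-BCL-2 (20 mM K phosphate pH 7.5, 50 mM NaCl, 1 mM EDTA, 0.005% Triton X-100), then 100 nM FAM-Bak 10 min, anti-GST-Tb added, 60 min RT dark. HTRF read; % inhibition vs DMSO and positive control, IC50 from curve fit.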

Sequence of BCL-2 recombinant protein (P10415 whole entry): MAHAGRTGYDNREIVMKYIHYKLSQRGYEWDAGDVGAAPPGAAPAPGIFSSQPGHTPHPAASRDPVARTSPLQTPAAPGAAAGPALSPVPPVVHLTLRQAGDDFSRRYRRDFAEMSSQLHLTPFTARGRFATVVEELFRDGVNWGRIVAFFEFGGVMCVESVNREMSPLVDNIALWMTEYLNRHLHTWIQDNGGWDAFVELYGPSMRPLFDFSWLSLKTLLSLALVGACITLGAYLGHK

SMILES | IC50 [nM]
CCNc1c([N+](=O)[O-])cc(C(=O)NS(=O)(=O)c2ccc(N3CCN(CC4=C(c5ccc(Cl)cc5)CC(C)(C)CC4)CC3)cc2Oc2cnc3[nH]ccc3c2)c(Cl)c1C [Example 99, 2-chloro-N-[4-[4-[[2-(4-chlorophenyl)-4,4-dimethylcyclohexen-1-yl]methyl]piperazin-1-yl]-2-(1H-pyrrolo[2,3-b]pyridin-5-yloxy)phenyl]sulfonyl-4-(ethylamino)-3-methyl-5-nitrobenzamide] | 10 to 100
CC1(C)CCC(CN2CCN(c3ccc(S(=O)(=O)NC(=O)c4ccc(NCC5CCOCC5)c([N+](=O)[O-])c4)c(Oc4cnc5[nH]ccc5c4)c3)CC2)=C(c2ccc(Cl)cc2)C1 [Example 100, N-[4-[4-[[2-(4-chlorophenyl)-4,4-dimethylcyclohexen-1-yl]methyl]piperazin-1-yl]-2-(1H-pyrrolo[2,3-b]pyridin-5-yloxy)phenyl]sulfonyl-3-nitro-4-(oxan-4-ylmethylamino)benzamide] | < 10
COc1c([N+](=O)[O-])cc(C(=O)NS(=O)(=O)c2ccc(N3CCN(CC4=C(c5ccc(Cl)cc5)CC(C)(C)CC4)CC3)cc2Oc2cnc3[nH]ccc3c2)c(Cl)c1C [Example 101, 2-chloro-N-[4-[4-[[2-(4-chlorophenyl)-4,4-dimethylcyclohexen-1-yl]methyl]piperazin-1-yl]-2-(1H-pyrrolo[2,3-b]pyridin-5-yloxy)phenyl]sulfonyl-4-methoxy-3-methyl-5-nitrobenzamide] | 10 to 100
CCOc1c([N+](=O)[O-])cc(C(=O)NS(=O)(=O)c2ccc(N3CCN(CC4=C(c5ccc(Cl)cc5)CC(C)(C)CC4)CC3)cc2Oc2cnc3[nH]ccc3c2)c(Cl)c1C [Example 102, 2-chloro-N-[4-[4-[[2-(4-chlorophenyl)-4,4-dimethylcyclohexen-1-yl]methyl]piperazin-1-yl]-2-(1H-pyrrolo[2,3-b]pyridin-5-yloxy)phenyl]sulfonyl-4-ethoxy-3-methyl-5-nitrobenzamide] | 100 to 1000
Cc1c(Cl)c(C(=O)NS(=O)(=O)c2ccc(N3CCN(CC4=C(c5ccc(Cl)cc5)CC(C)(C)CC4)CC3)cc2Oc2cnc3[nH]ccc3c2)cc([N+](=O)[O-])c1OCC1COC1 [Example 103, 2-chloro-N-[4-[4-[[2-(4-chlorophenyl)-4,4-dimethylcyclohexen-1-yl]methyl]piperazin-1-yl]-2-(1H-pyrrolo[2,3-b]pyridin-5-yloxy)phenyl]sulfonyl-3-methyl-5-nitro-4-(oxetan-3-ylmethoxy)benzamide] | 10 to 100
Cc1c(Cl)c(C(=O)NS(=O)(=O)c2ccc(N3CCN(CC4=C(c5ccc(Cl)cc5)CC(C)(C)CC4)CC3)cc2Oc2cnc3[nH]ccc3c2)cc([N+](=O)[O-])c1OCC1CCOC1 (stereo not shown) [Example 106, 2-chloro-N-[4-[4-[[2-(4-chlorophenyl)-4,4-dimethylcyclohexen-1-yl]methyl]piperazin-1-yl]-2-(1H-pyrrolo[2,3-b]pyridin-5-yloxy)phenyl]sulfonyl-3-methyl-5-nitro-4-(oxolan-3-ylmethoxy)benzamide] | < 10
Cc1c(Cl)c(C(=O)NS(=O)(=O)c2ccc(N3CCN(CC4=C(c5ccc(Cl)cc5)CC(C)(C)CC4)CC3)cc2Oc2cnc3[nH]ccc3c2)cc([N+](=O)[O-])c1OCC1CCCO1 (stereo not shown) [Example 107, 2-chloro-N-[4-[4-[[2-(4-chlorophenyl)-4,4-dimethylcyclohexen-1-yl]methyl]piperazin-1-yl]-2-(1H-pyrrolo[2,3-b]pyridin-5-yloxy)phenyl]sulfonyl-3-methyl-5-nitro-4-(oxolan-2-ylmethoxy)benzamide] | < 10
